Laboratory results as given in patent US9988381B2, “Five-member-heterocycle fused pyridine compounds, method of producing the same, and use thereof” (SHANGHAI INSTITUTE OF MATERIA MEDICA, CHINESE ACADEMY OF …, priority 2013, dated 2018).
Read-outs that look alike come from different tables or passages of the source.

How the values were obtained:
[1] = target: T1, c-Met kinase domain recombinant protein (Homo sapiens, UniProt P08581); experiment: biochemical; conditions: for inhibition at 0.1 µM: read-out: Average inhibition rate at 0.1 μM (%); for inhibition at 1 µM: read-out: Average inhibition rate at 1 μM (%); for inhibition at 10 µM: read-out: Average inhibition rate at 10 μM (%)
T1 construct: 50 μL diluted solution of c-Met kinase domain recombinant protein in reaction buffer was added to initiate the reaction
T1 sequence (P08581 1078-1345 limits assumed): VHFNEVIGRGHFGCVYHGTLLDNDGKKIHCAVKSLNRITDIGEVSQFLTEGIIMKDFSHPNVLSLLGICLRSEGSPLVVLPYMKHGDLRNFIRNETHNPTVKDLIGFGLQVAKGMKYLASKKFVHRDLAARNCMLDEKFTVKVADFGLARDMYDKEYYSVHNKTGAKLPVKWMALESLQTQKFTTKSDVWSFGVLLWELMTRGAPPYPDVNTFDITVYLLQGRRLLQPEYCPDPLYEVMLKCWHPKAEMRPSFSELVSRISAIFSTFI
Description: (§1) Enzymatic reaction substrate Poly(Glu,Tyr)4:1 was diluted to 20 μg/mL in potassium ion free PBS (10 mM sodium phosphate buffer, 150 mM NaCl, pH7.2-7.4), microplate was coated with this solution at 125 μL per well, and reacted at 37° C. for 12-16 hours. Liquid in wells was discarded, then the plate was washed 3 times for 5 minutes each with 200 μL per well of T-PBS (PBS containing 0.1% Tween-20).
Into each well was added 50 μL diluted ATP solution in reaction buffer (50 mM HEPES pH 7.4, 50 mM MgCl2, 0.5 mM MnCl2, 0.2 mM Na3VO4, 1 mM DTT), the final concentration was 5 μM. Test compound was diluted in DMSO to proper concentration, added at 1 μL per well or corresponding level of DMSO (negative control wells), then 49 μL diluted solution of c-Met kinase domain recombinant protein in reaction buffer was added to initiate the reaction, each test was setup with two wells of ATP free control. Reaction was performed in a 37° C. shaker (100 rpm) for 1 hour. The plate was washed three times with T-PBS. Primary antibody PY99 diluted solution was added at 100 μL per well, incubated in a 37° C. shaker for 0.5 hour.
The plate was washed three times with T-PBS. Goat anti mouse secondary antibody labeled with horseradish peroxidase was added at 100 μL per well, incubated in a 37° C. shaker for 0.5 hour. The plate was washed three times with T-PBS. […] Reaction was terminated by adding 50 μL per well of 2M H2SO4, the plate was read at 490 nm using a SPECTRA MAX 190 microplate reader with tunable wavelength.
(§2) Inhibition rate of the sample was calculated using the following equation: […]
IC50 was calculated by fitting the data for a four parameter fit using inhibition curve.

[2] = target: T1, c-Met kinase domain recombinant protein; experiment: biochemical; conditions: read-out: Inhibition rate at 10 μM (%)
Description: as §1, with “discarded. Plate washing:” for “discarded, then”, “(potassium ion free PBS” for “(PBS”
Into each well was added 49 μL diluted ATP solution in reaction buffer (50 mM HEPES pH 7.4, 50 mM MgCl2, 0.5 mM MnCl2, 0.2 mM Na3VO4, 1 mM DTT), and 1 μL per well of compound to be tested was added, then 50 μL diluted solution of c-Met kinase domain recombinant protein in reaction buffer was added to initiate the reaction, each test was setup with two wells of ATP free control. Reaction was performed in a 37° C. shaker (100 rpm) for 1 hour. Liquid in the wells was discarded, and the plate was washed three times with T-PBS.
Antibody PY99 was added at 100 μL per well (the antibody was 1:500 diluted in T-PBS containing 5 mg/mL BSA), incubated in a 37° C. shaker for 0.5 hour. Liquid in the wells was discarded, and the plate was washed three times with T-PBS.
Goat anti mouse secondary antibody labeled with horseradish peroxidase was added at 100 μL per well (the antibody was 1:2000 diluted in T-PBS containing 5 mg/mL BSA), incubated in a 37° C. shaker for 0.5 hour. Liquid in the wells was discarded, and the plate was washed three times with T-PBS.
Reaction was terminated by adding 50 μL per well of 2M H2SO4, the plate was read at 490 nm using a VERSAmax microplate reader with tunable wavelength.
as §2

Structure (SMILES) | inhibition at 0.1 µM [1] [%] | inhibition at 1 µM [1] [%] | inhibition at 10 µM [1] [%] | inhibition at 10 µM [2] [%] | IC50 [1] [nM]
CN(C)C(=O)c1ccc(-c2cnc3cnn(S(=O)(=O)c4cnc5ccccn45)c3c2)cc1 [Example 41, 1-(imidazo[1,2-a]pyridine-3-sulfonyl)-6-(4-dimethylaminocarbonylphenyl)-1-H-pyrazolo[4,3-b]pyridine] | 45.1 | 54.6 | 68.7 | 68.7 | 
CN(C)c1ccc(-c2cnc3cnn(S(=O)(=O)c4cnc5ccccn45)c3c2)cc1 [Example 42, 1-(imidazo[1,2-a]pyridine-3-sulfonyl)-6-(4-dimethylaminophenyl)-1-H-pyrazolo[4,3-b]pyridine] | 45.5 | 58.4 | 67.5 | 67.5 | 
COc1ccc(OC)c(-c2cnc3cnn(S(=O)(=O)c4cnc5ccccn45)c3c2)c1 [Example 43, 1-(imidazo[1,2-a]pyridine-3-sulfonyl)-6-(2,5-dimethoxyphenyl)-1-H-pyrazolo[4,3-b]pyridine] | 23.1 | 47.6 | 68.7 | 58.4 | 
CC(C)(C)OC(=O)N1CCC(n2cc(-c3cnc4cnn(S(=O)(=O)c5cnc6ncccn56)c4c3)cn2)CC1 [Example 52, 1-(imidazo[1,2-a]pyrimidine-3-sulfonyl)-6-{{1-[(1-t-butoxycarbonyl)-4-piperidinyl]}-4-pyrazolyl}-1-H-pyrazolo[4,3-b]pyridine] | 24.5 | 50.3 | 54.5 | 54.5 | 
O=C(c1ccc(C(F)(F)F)cc1)N1CCC(n2cc(-c3cnc4cnn(S(=O)(=O)c5cnc6ccccn56)c4c3)cn2)CC1 [Example 58, 1-(imidazo[1,2-a]pyridine-3-sulfonyl)-6-{{1-[(1-p-trifluoromethylbenzoyl)-4-piperidinyl]}-4-pyrazolyl}-1-H-pyrazolo[4,3-b]pyridine] | 52.8 | 55.7 | 57.4 | 58.9 | 
CC(C)(C)OC(=O)N1CCC(n2cc(-c3cnc4cnn(S(=O)(=O)c5cnc6ccc(-c7cnn(C8CCN(C(=O)OC(C)(C)C)CC8)c7)nn56)c4c3)cn2)CC1 [Example 62, 1-{(6-{{1-[(1-t-butoxycarbonyl)-4-piperidinyl]}-4-pyrazolyl}-imidazo[1,2-b]pyridazine)-3-sulfonyl}-6-{{1-[(1-t-butoxycarbonyl)-4-piperidinyl]}-4-pyrazolyl}-1-H-pyrazolo[4,3-b]pyridine] | 73.2 | 73.2 | 80 | 62.6 | 
O=S(=O)(c1cnc2ccc(C(F)(F)F)cn12)n1ncc2ncc(-c3cnn(C4CCNCC4)c3)cc21 [Example 65] | 60.8 | 65.1 | 69.8 | 79.3 | 
CC(C)(C)OC(=O)N1CCC(n2cc(-c3cnc4cnn(S(=O)(=O)c5cnc6ccc(-c7cnn(C8CCN(C(=O)OC(C)(C)C)CC8)c7)cn56)c4c3)cn2)CC1 [Example 68, 1-{(6-{{1-[(1-t-butoxycarbonyl)-4-piperidinyl]}-4-pyrazolyl}-imidazo[1,2-a]pyridine)-3-sulfonyl}-6-{{1-[(1-t-butoxycarbonyl)-4-piperidinyl]}-4-pyrazolyl}-1-H-pyrazolo[4,3-b]pyridine] | 50.2 | 55.8 | 62 | 69.8 | 
CC(C)N1CCC(n2cc(-c3cnc4cnn(S(=O)(=O)c5cnc6ccc(C(F)(F)F)cn56)c4c3)cn2)CC1 [Example 69] | 52.3 | 57.7 | 59.6 | 79.9 | 
Cn1cc(-c2cnc3cnn(S(=O)(=O)c4cnc5ccc(Br)cn45)c3c2)cn1 [Example 70, 1-[(6-bromo-imidazo[1,2-a]pyridine)-3-sulfonyl]-6-[(1-methyl)-4-pyrazolyl]-1-H-pyrazolo[4,3-b]pyridine] |  | 44.7 | 79.3 | 68.2 | 
Cn1cc(-c2cnc3cnn(S(=O)(=O)c4cnc5ccc(-c6ccccc6)cn45)c3c2)cn1 [Example 71, 1-[(6-phenyl-imidazo[1,2-a]pyridine)-3-sulfonyl]-6-[(1-methyl)-4-pyrazolyl]-1-H-pyrazolo[4,3-b]pyridine] | 68.5 | 73.4 | 83.8 | 62 | 0.1 ± 0.01
Cn1cc(-c2cnc3cnn(S(=O)(=O)c4cnc5ccc(-c6cncnc6)cn45)c3c2)cn1 [Example 74, 1-{[6-(5-pyrimidine)-imidazo[1,2-a]pyridine]-3-sulfonyl}-6-[(1-methyl)-4-pyrazolyl]-1-H-pyrazolo[4,3-b]pyridine] |  |  | 12.1 | > 67.6 | 

Continued, values first:

inhibition at 0.1 µM [1] [%] | inhibition at 1 µM [1] [%] | inhibition at 10 µM [1] [%] | inhibition at 10 µM [2] [%] | IC50 [1] [nM] | Structure (SMILES)
74.6 | 75.6 | 83.1 | > 77.3 |  | Cn1cc(-c2cnc3cnn(S(=O)(=O)c4cnc5ccc(-c6ccc(N7CCOCC7)cc6)cn45)c3c2)cn1 [Example 75, 1-{[6-(4-morpholinylphenyl)-imidazo[1,2-a]pyridine]-3-sulfonyl}-6-[(1-methyl)-4-pyrazolyl]-1-H-pyrazolo[4,3-b]pyridine]
55.8 | 64.8 | 85.5 | > 76.9 |  | Cn1cc(-c2cnc3cnn(S(=O)(=O)c4cnc5ccc(-c6ccc(C(F)(F)F)cc6)cn45)c3c2)cn1 [Example 77, 1-{[6-(4-trifluoromethylphenyl)-imidazo[1,2-a]pyridine]-3-sulfonyl}-6-[(1-methyl)-4-pyrazolyl]-1-H-pyrazolo[4,3-b]pyridine]
64.5 | 69.3 | 89.3 | > 12.1 |  | Cc1ccc(-c2ccc3ncc(S(=O)(=O)n4ncc5ncc(-c6cnn(C)c6)cc54)n3c2)cc1F [Example 78, 1-{[6-(3-fluoro-4-methylphenyl)-imidazo[1,2-a]pyridine]-3-sulfonyl}-6-[(1-methyl)-4-pyrazolyl]-1-H-pyrazolo[4,3-b]pyridine]
 | 30.5 | 77.4 | > 83.1 |  | CC(C)Oc1ccc(-c2ccc3ncc(S(=O)(=O)n4ncc5ncc(-c6cnn(C)c6)cc54)n3c2)cc1 [Example 79]
 | 47.5 | 80.6 | > 75.3 |  | CN1CCN(C(=O)c2ccc(-c3ccc4ncc(S(=O)(=O)n5ncc6ncc(-c7cnn(C)c7)cc65)n4c3)cc2)CC1 [Example 80, 1-{[6-[4-(4-methylpiperazine-1-carbonyl)phenyl]-imidazo[1,2-a]pyridine]-3-sulfonyl}-6-[(1-methyl)-4-pyrazolyl]-1-H-pyrazolo[4,3-b]pyridine]
54.4 | 63.8 | 77.7 | > 78.5 |  | Cn1cc(-c2cnc3cnn(S(=O)(=O)c4cnc5ccc(-c6cnn(C7CCNCC7)c6)cn45)c3c2)cn1 [Example 82, 1-{[6-([1-(4-piperidinyl)]-4-pyrazolyl)-imidazo[1,2-a]pyridine]-3-sulfonyl}-6-[(1-methyl)-4-pyrazolyl]-1-H-pyrazolo[4,3-b]pyridine chloride]
